Assay results published in patent publication US20110046378A1, “Novel Imaging Agents for Detecting Neurological Dysfunction” (SIEMENS MEDICAL SOLUTIONS USA, INC., priority 2008, published 2011).
Where two headings read alike, the source gives them in different places. One block for each compound: values may come before it.

Legend:
Aβ42 soluble aggregates = Aβ42 soluble aggregates (Homo sapiens, UniProt P05067); experiment: Surface plasmon resonance (Biacore) assay, Aβ42 soluble aggregates; conditions: SPR; read-out: binding to soluble aggregates
Aβ42 soluble aggregates, sequence (P05067 672-713 limits assumed): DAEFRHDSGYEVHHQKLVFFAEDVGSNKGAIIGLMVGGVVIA

[1] = target: T1, Amyloid (AD patient's brain slice) (Homo sapiens, UniProt P05067); experiment: IC50 determination with [18F]-PiB by ex vivo competition assay using autoradiography staining; format: binding; conditions: for blocking of [18F]-PiB tissue binding, qualitative: human AD brains
T1 construct: The brain slices were 20 um thick
T1 sequence (P05067 672-711 limits assumed): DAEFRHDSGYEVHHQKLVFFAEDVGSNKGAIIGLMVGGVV
Description: (§1) Ex Vivo Competition Assay Using Amyloid (AD patient's brain slice) Autoradiography Staining

[2] = target: Aβ42 insoluble aggregates (Homo sapiens, UniProt P05067); experiment: Surface plasmon resonance (Biacore) assay, Aβ42 insoluble aggregates; conditions: SPR; read-out: binding to insoluble aggregates
Aβ42 insoluble aggregates, sequence (P05067 672-713 limits assumed): as the sequence (P05067 672-713 limits assumed) above

[3] = MicroPET imaging in WT and App mice; format: in vivo; conditions: for brain clearance / washout rate: WT and App mice brain, compared with [18F]PiB
[4] = tested on: Amyloid (AD patient's brain slice); experiment: Amyloid autoradiography staining of AD patient's brain slices, grey/white matter binding with wash protocols; set-up: species or system human; conditions: for Grey/white matter binding ratio using mild wash conditions: 30%/40%/20% EtOH:water; for order of (non-specific) white matter binding: AD brain slices; for amyloid autoradiography staining (ex vivo), qualitative: AD patient's brain / normal brain; for grey to white matter binding ratio: human AD brain slices, EtOH:water washes
Procedure: as §1
A study was conducted to examine the grey to white matter binding ratios for 4 different tracers: CB-001, CB-003, FDDNP and F-PiB (FIG. 7 and FIG. 8). […] After the human brain slices from AD patients were incubated with a given tracer for 30 min, the slices were washed with various EtOH:water solutions in an attempt to optimize the grey-to white matter ratios (FIG. 9). The results were surprising and unexpected in view of previous work performed by other researchers. CB-001 has a slightly higher c Log P than FDDNP (3.8 vs 3.4) and would be expected to have poorer washout than FDDNP based on these values. […] More specifically, the white matter binding of FDDNP is several shades darker than CB-001's white matter binding, indicating low non-specific binding of CB-001.

Aβ fibrils = conditions: read-out: Binding Affinity Ki; cited from earlier work
Aβ 1-42 aggregates = target: T2, Aβ 1-42 aggregates (Homo sapiens, UniProt P05067); conditions: read-out: Binding Affinity Ki; cited from earlier work
T2 construct: Aβ 1-42 aggregates
T2 sequence (P05067 672-713 limits assumed): as above

[5] = MicroPET dynamic scan of rat brain after tail vein injection; format: in vivo, white Sprague-Dawley rat; conditions: 30 min dynamic scan
Procedure: A white Sprague-Dawley rat was injected via tail vein with ˜850 uCi AD-CB-001, formulated in 10% EtOH:water. A dynamic scan was conducted for 30 min on a R4 microPET scanner. The data was reconstructed using 1 min framing.

[6] = tested on: Amyloid (AD brain slices); experiment: [18F]-CB001 competition studies on AD brain slices; format: binding, human
[7] = determination 1, vs [18F]-PiB, read-out: IC50 1
[8] = mean of determinations, vs [18F]-PiB, read-out: Average IC50
[9] = 30 min incubation, PBS, PBS, 20 um AD brain slices

Kd (Aβ42 soluble aggregates): 262 nM
IC50 [1, 7]: 1100 nM
IC50 ([1]; determination 6, vs [18F]-PiB, read-out: IC50 6): 900 nM
IC50 ([1]; determination 13, vs [18F]-PiB, read-out: IC50 13): 920 nM
IC50 [1, 8]: 973 nM
Kd [2]: 9 nM
brain clearance / washout rate [3]: faster washout rate than 18F-PiB
brain clearance / washout rate ([3]; listed as [18F]-CB003): much faster than with [18F]PiB
larger brain/muscle ratio of App mice compared to WT mice ([3]; microPET): up to 25%
Grey/white matter binding ratio using mild wash conditions [4, 9]: Excellent
order of (non-specific) white matter binding [4]: FDDNP>CB001>[18F]-PiB>CB003
Compound: FCCOCCOCCOc1ccc2c(c1)[nH]c1ccccc12 [CB-003, 2-(2-(2-(2-fluoroethoxy)ethoxy)ethoxy)-9H-carbazole]
blocking of [18F]-PiB tissue binding, qualitative [1]: still competes with 18F-PiB for binding sites in human AD brains
blocking of [18F]-PiB tissue binding, qualitative ([1]; listed as CB003): concentration-dependent blocking of [18F]-PiB tissue binding
amyloid autoradiography staining (ex vivo), qualitative [4]: amyloid deposits were clearly visible in the grey matter with little white matter uptake
amyloid autoradiography staining (ex vivo), qualitative ([4]; listed as [18F]-CB003): clearly distinguishes between Alzheimer's and normal brains
grey to white matter binding ratio ([4]; 30 min incubation): excellent grey to white matter binding ratios

Compound: CNc1ccc(-c2nc3ccc(O)cc3s2)cc1 [PiB, reference compound]
Ki (Aβ fibrils): 2.8 nM

Compound: CNc1ccc(/C=C2\Oc3ccc([125I])cc3C2=O)cc1 [Aurones]
Ki (Aβ 1-42 aggregates): 1.24 nM

IC50 [1, 7]: 1000 nM
IC50 ([1]; determination 2, vs [18F]-PiB, read-out: IC50 2): 480 nM
IC50 [1, 8]: 740 nM
brain uptake, qualitative ([3]; App and WT mice, microPET): very good brain uptake
Grey/white matter binding ratio using mild wash conditions [4, 9]: Poor
Grey/white matter binding ratio using harsh FDDNP wash conditions ([4]; 30 min incubation, PBS, 70%/90%/70% EtOH:water, PBS, 20 um AD brain slices): Excellent
order of (non-specific) white matter binding [4]: FDDNP>CB001>[18F]-PiB>CB003
Compound: FCCOc1ccc2c(c1)[nH]c1ccccc12 [CB-001, 2-(2-fluoroethoxy)-9H-carbazole]
brain entry and washout, qualitative [5]: Within minutes, the tracer entered the rat brain and quickly washed out
plaque binding of the tracer in competition studies ([6]; AD brain slices): reversible plaque binding and competition with PiB, and little/no white matter binding
blocking of [18F]-CB001 staining ([6]; cold competitor, increasing concentrations): PiB appears to block tracer binding with the same strength as cold CB001
amyloid autoradiography staining (ex vivo), qualitative [4]: good amyloid binding and little/no white matter binding
grey to white matter binding ratio ([4]; 30 min incubation): much better grey to white matter ratio compared to FDDNP
